Where “and” joins values, the source holds several entries; their conditions need not be identical. Identical values can stand only once.
Assays:
Biotin-Aβ(1-42) = molecular target: T1, Biotin-Aβ(1-42) (Homo sapiens, UniProt P05067); assay: Biotin-Aβ(1-42) oligomeric assay; assay type: biochemical; settings: inhibition of oligomer formation at 25 uM, 30 minutes; higher = more inhibition
T1 construct: Biotin-Aβ(1-42) (AnaSpec) at 0.2 mg/ml in hexafluoroisopropanol (HFIP); purchased AnaSpec
Description: The following assay was adapted from H. LeVine III. Biotin-avidin interaction-based screening assay for Alzheimer's β-peptide oligomer inhibitors, Anal. Biochem. 356 (2006) 265-272 and A. Frey, B. Meckelein, D. Externest, M. A. Schmidt A stable and highly sensitive 3,3′,5,5′-tetramethylbenzidine-based substrate reagent for enzyme-linked immunosorbent assays, J. Immunol. Methods 233 (2000) 47-56.
Biotin-Aβ(1-42) (AnaSpec) at 0.2 mg/ml in hexafluoroisopropanol (HFIP) was further diluted in 20 volumes of HFIP, which was then evaporated under a stream of argon. 20 volumes of trifluoroacetic acid was added and let rest for 10 minutes, then evaporated under a stream of argon. Another 20 volumes of HFIP was added and evaporated under a stream of argon. Biotin-Aβ(1-42) was brought to a final concentration of 2.3 mg/ml in DMSO. Oligomer formation was initiated in 96 well round bottom polypropylene plates by diluting the prepared biotin-Aβ(1-42) 50× in 20 mM sodium phosphate pH 7.5, 150 mM NaCl in the presence of vehicle or compound. Oligomer formation was halted after 30 minutes by the addition of 50 μl/well of 0.3% Tween-20.
96 well Costar high-binding microplates were coated overnight at +4° C. with 50 μl/well of 1 ug/ml NeutrAvidin (ThermoScientific) in 10 mM sodium phosphate, pH 7.5. Plates were blocked for 2 hours at room temperature with 200 μl/well 20 mM sodium phosphate pH 7.5, 150 mM NaCl, 0.1% Tween-20. The oligomer preparation was transferred at 50 μl/well to the blocked plate and incubated for 2 hours at room temperature with shaking at 150 rpm. The plate was then washed three times with 200 μl/well 20 mM tris-HCl pH 7.5, 34 mM NaCl, 0.1% Tween-20 (TBS-T). Streptavidin-HRP (Rockland Immunochemicals) [1:20,000] in 20 mM sodium phosphate pH 7.5, 150 mM NaCl, 0.1% Tween-20 was added at 50 μl/well and incubated in the dark at room temperature for 1 hour with shaking at 150 rpm. The plate was washed three times with 200 μl/well of TBS-T. Tetramethylbenzidine/H2O2 substrate was prepared by mixing 250 μl of 41 mM 3,3′,5,5′-tetramethylbenzidine, 8.2 mM tetrabutylammonium borohydride in dimethylacetamide with 10 ml of 205 mM K3 citrate pH 4.0, 3.075 mM H2O2 and incubating for 15 minutes at room temperature. Prepared substrate solution was added at 100 μl/well and the reaction was allowed to proceed for 15 minutes, after which it was terminated by the addition of 100 μl/well of 1% H2SO4. The OD450nm was determined using a Tecan Infinite F200 plate reader.

Aβ40 = Aβ40 (Homo sapiens, UniProt P05067); assay: kinetic ThT assay for Aβ aggregation; assay type: biochemical; settings: for inhibition at 5 µM: 80 h, read-out: % inhib Aβ 40 (5 μm); for IC50: ThT fluorescence, 20 μM Aβ, 37° C., up to 80 hr, parenthesis = compound 1027 in same experiment, read-out: IC50 A β 1-40; for inhibition at 10 µM: compound 10 μM, read-out: % inhib Aβ 40 10 μM; for inhibition at 20 µM: read-out: % inhib. A β 40 (20 μM)
Description: Aβ40 (1.0 mg) was pre-treated in a 1.5 mL microfuge tube with HFIP (1 mL) and sonicated for 20 min to disassemble any pre-formed Aβ aggregates. The HFIP was removed with a stream of argon and the Aβ dissolved in Tris base (5.8 mL, 20 mM, pH˜10). The pH was adjusted to 7.4 with concentrated HCl (˜10 μL) and the solution filtered using a syringe filter (0.2 μm) before being used.
The kinetic ThT assay for AP aggregation is similar to that of Chalifour et al (Chalifour et al, 2003, J. Biol. Chem. 278:34874-81). Briefly, pre-treated Aβ40 or Aβ42 (40 μM in 20 mM Tris, pH 7.4) was diluted with an equal volume of 8 μM Thioflavin T (ThT) in Tris (20 mM, pH 7.4, 300 mM NaCl). Aliquots of Aβ/ThT (200 μL) were added to wells of a black polystyrene 96-well plate, followed by 2 μL of a compound in DMSO (variable concentration), or DMSO alone (controls). Incubations were performed in triplicate and were taken to contain 20 μM Aβ, various concentration of compound in 20 mM Tris, pH 7.4, 150 mM NaCl, 1% DMSO. Plates were covered with clear polystyrene lids and incubated at 37° C. in a Tecan Genios microplate reader.
Fluorescence readings (λex=450 nm, λem=480 nm) were taken every 15 min., after first shaking at high intensity for 15 s and allowing to settle for 10 s before each reading. Active compounds attenuated the increase in fluorescence over time that occurred in controls. In FIGS. 1-7, the time this procedure was performed extended to 80 hours (rightmost part of X-axis), at which point fluorescence increase generally reached an asymptote. Applying a definition of DMSO control at 80 hr as 100% aggregation (0% inhibition) and DMSO control at 0 hr as 0% aggregation (100% inhibition), a % inhibition score where higher is better can be calculated for a given concentration of compound. By repeating this procedure over several concentrations, a […] (IC50) can be measured, as is given in the table below for some compounds.
Data is summarized in the table below; numbers given in parenthesis are the values in that particular experiment for compound ID 1027, given as the first entry in this table for comparison.

[1] = compound 5 μm, DMSO control at 80 hr = 0% inhibition, parenthesis = compound 1027
[2] = DMSO control at 80 hr = 0% inhibition, parenthesis = compound 1027
[3] = compound 20 μM, DMSO control at 80 hr = 0% inhibition, parenthesis = compound 1027

Chain of Aβ40 (P05067 672-711 limits assumed, species assumed): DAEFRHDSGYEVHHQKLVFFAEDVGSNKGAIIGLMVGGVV
T1 sequence (P05067 672-713 limits assumed): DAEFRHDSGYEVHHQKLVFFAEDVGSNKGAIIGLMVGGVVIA

SMILES	inhibition at 25 µM (Biotin-Aβ(1-42)) [%]	inhibition at 5 µM (Aβ40; [1]) [%]	inhibition at 10 µM (Aβ40; [2]) [%]	also measured
OC(c1cccc(-c2cc(N3CCC(N4CCCC4)CC3)c3nonc3c2)c1)C(F)(F)F (centres unmarked) [TRV-1387]	75	40	52	IC50 (Aβ40): 5.76 µM; inhibition at 20 µM (Aβ40; [3]): 78%
CN(Cc1ccccn1)c1cc(-c2cccc(C(O)C(F)(F)F)c2)cc2nonc12 (centres unmarked) [TRV-1412]		51		inhibition at 20 µM (Aβ40; [3]): 64%
CN(Cc1cccnc1)c1cc(-c2cccc(C(O)C(F)(F)F)c2)cc2nonc12 (centres unmarked) [TRV-1413]		53		inhibition at 20 µM (Aβ40; [3]): 61.3%
COc1ccc(CN(C)c2cc(-c3cccc(C(O)C(F)(F)F)c3)cc3nonc23)cc1 (centres unmarked) [TRV-1414]		53		inhibition at 20 µM (Aβ40; [3]): 69%
COc1cc(CN(C)c2cc(-c3cccc(C(O)C(F)(F)F)c3)cc3nonc23)cc(OC)c1 (centres unmarked) [TRV-1415]		52		inhibition at 20 µM (Aβ40; [3]): 53%
CN(Cc1ccc(F)cc1)c1cc(C(=O)C(F)(F)F)cc2nonc12 [TRV-1417]		52		inhibition at 20 µM (Aβ40; [3]): 75%
CC(=O)c1cc(N(C)Cc2ccc(F)cc2)c2nonc2c1 [TRV-1418]		34		inhibition at 20 µM (Aβ40; [3]): 55%
OC1(c2cc(N3Cc4ccccc4C3)c3nonc3c2)COC1 [TRV-1419]		48		inhibition at 20 µM (Aβ40; [3]): 55%
OC(c1cc(N2Cc3ccccc3C2)c2nonc2c1)C(F)(F)F (centres unmarked) [TRV-1420]		44		inhibition at 20 µM (Aβ40; [3]): 48%
CC(O)/C=C/c1cc(N(C)Cc2ccc(F)cc2)c2nonc2c1 (centres unmarked) [TRV-1427]			41	
OCC1CN(c2cc(-c3cccc(C(O)C(F)(F)F)c3)cc3nonc23)C1 (centres unmarked) [TRV-1428]			78	
OC(c1cccc(-c2cc(N3CCC3)c3nonc3c2)c1)C(F)(F)F (centres unmarked) [TRV-1432]			51	
CC(C)(O)C1CN(c2cc(-c3cccc(C(O)C(F)(F)F)c3)cc3nonc23)C1 (centres unmarked) [TRV-1435]	29	52	66	
CC1(O)CN(c2cc(-c3cccc(C(O)C(F)(F)F)c3)cc3nonc23)C1 (centres unmarked) [TRV-1436]		48	67	
CCOC1CN(c2cc(-c3cccc(C(O)C(F)(F)F)c3)cc3nonc23)C1 (centres unmarked) [TRV-1437]		44	50	
O=C(c1cccc(-c2cc(N3CCC3)c3nonc3c2)c1)N1CCNCC1 [TRV-1440]		52	60	
O=C(NC1CC1)c1cccc(-c2cc(N3CCC3)c3nonc3c2)c1 [TRV-1441]		47	64	
O=C(c1cccc(-c2cc(N3CCC3)c3nonc3c2)c1)N1CCOCC1 [TRV-1442]		29	43	

SMILES	inhibition at 25 µM (Biotin-Aβ(1-42)) [%]	inhibition at 5 µM (Aβ40; [1]) [%]	inhibition at 10 µM (Aβ40; [2]) [%]	also measured
CN(Cc1ccc(F)cc1)c1cc(-c2cccc(C3(O)COC3)c2)cc2nonc12 [TRV-1446]		29	50	
CC(C)OC1CN(c2cc(-c3cccc(C(O)C(F)(F)F)c3)cc3nonc23)C1 (centres unmarked) [TRV-1447]		54	70	
OC1CCN(c2cc(-c3cccc(C(O)C(F)(F)F)c3)cc3nonc23)C1 (centres unmarked) [TRV-1448]	-23	45	55	
CC(C)(O)[C@@H]1CCCN1c1cc(-c2cccc(C(O)C(F)(F)F)c2)cc2nonc12 (some centres unmarked) [TRV-1449]	-3	55	72	
OC[C@@H]1CCCN1c1cc(-c2cccc(C(O)C(F)(F)F)c2)cc2nonc12 (some centres unmarked) [TRV-1450]	32	57	79	
CC(O)C1CN(c2cc(-c3cccc(C(O)C(F)(F)F)c3)cc3nonc23)C1 (centres unmarked) [TRV-1451]	4	54	73	
OC(c1cccc(-c2cc(N3CCC[C@H]3CN3CCCC3)c3nonc3c2)c1)C(F)(F)F (some centres unmarked) [TRV-1452]	76	50	63	
OC(c1cccc(-c2cc(N3CC(CN4CCOCC4)C3)c3nonc3c2)c1)C(F)(F)F (centres unmarked) [TRV-1455]	29	41	60	
OC(c1cccc(-c2cc(N3CC(N4CCCC4)C3)c3nonc3c2)c1)C(F)(F)F (centres unmarked) [TRV-1456]	3	36	64	
OC(c1cccc(-c2cc(N3CC(CN4CCCC4)C3)c3nonc3c2)c1)C(F)(F)F (centres unmarked) [TRV-1457]	82	51	65	
CN(Cc1nccs1)c1cc(-c2cccc(C(O)C(F)(F)F)c2)cc2nonc12 (centres unmarked) [TRV-1459]	-32	47	62	
CN(Cc1ccc(F)cc1)c1cc(-c2cccc(C(=O)N3CCCC3)c2)cc2nonc12 [TRV-1460]	10	36	44	
COC(C)C1CN(c2cc(-c3cccc(C(O)C(F)(F)F)c3)cc3nonc23)C1 (centres unmarked) [TRV-1461]	-28	58.9	71.7	
OC(c1cccc(-c2cc(N3CC(N4CCOCC4)C3)c3nonc3c2)c1)C(F)(F)F (centres unmarked) [TRV-1462]	23	53	48	
CN(C)CCCN(C)c1cc(-c2cccc(C(O)C(F)(F)F)c2)cc2nonc12 (centres unmarked) [TRV-1465]	69			
O=C(c1ccccc1)N1CCN(c2ccc([N+](=O)[O-])c(Nc3ccccc3)c2)CC1 [compound 1027, reference compound]		33		IC50 (Aβ40): 10.5 µM (3×) and 14.7 µM and 22.1 µM (3×); % inhib. A β 40 (20 μM) (Aβ40; [3]): 52% and 53% and 51%; inhibition at 20 µM (Aβ40; [3]): 69%; % inhib Aβ 40 (3 μm) (Aβ40; compound 3 μm, DMSO control at 80 hr = 0% inhibition, parenthesis = compound 1027): 26%; % inhib Aβ 40 (5 μm) (Aβ40; [1]): 38% and 33% (3×)
CN(C)CCCN(C)c1cc(-c2cccc(C(O)C(F)(F)F)c2)cc2nonc12 (centres unmarked) [compound 1463]		43.8	62	
